Results as given in patent publication US9656945B2, “3-acyl-ingenols II” (LEO LABORATORIES LIMITED, priority 2010, dated 2017).

Assays:
[1] = tested on: PMN's (polymorphonuclear leukocytes); assay: Neutrophil oxidative burst assay; type: cell-based; settings: Leukocyte, 40 min, read-out: Neutrophil oxidative burst Rel EC50 range
Description: PMN's (polymorphonuclear leukocytes) were isolated and purified from fresh buffy coats by sequential sedimentation, density centrifugation and lysis of contaminating erythrocytes. Buffy coats were incubated with 2% methocel for 30-45 min to differentially sediment red blood cells. The leukocyte-rich supernatant was transferred to lymphoprep tubes to remove mononuclear cells by density centrifugation (400×g, 30 min). The pellet was resuspended and any remaining erythrocytes lysed using 0.2% NaCl for 30 sec before restoring isotonicity by the addition of 1.2% NaCl. This step was repeated until the cell pellet appears relatively free of red blood cells. Cells were resuspended in DPBS (Dulbecco's Phosphate Buffered Saline) (w.o. Ca^2+, Mg^2+) and the concentration adjusted to 1.4×10^6 cells/ml in HBSS (Hanks Balanced Salt solution) (w Ca^2+, Mg^2+) containing 0.1% BSA (Bovine Serum Albumin) and 5 mM glucose just prior to assay initiation. Titrated reference and test compounds were pre-mixed with HE (Hydroethidine) (10 μM final assay concentration) before addition to 96-well plates containing 2.5×10^5 cells. Following 40 min incubation at RT, changes in the respiratory burst was estimated by measuring fluorescence at 579 nm (excitation: 485 nm) using an Envision plate reader.
Test compound titration curves were fitted to a four-parameter sigmoidal curve after normalizing the effect of the test compound to the effect of the positive control (5×10^−7 M PEP0005). Rel EC50 denotes the concentration of test compound producing an effect that is midway between the fitted top and bottom. Abs EC50 is the concentration of test compound that provokes a response corresponding to 50% of the maximal effect associated with the positive control (5×10^−7 M PEP0005).

[2] = tested on: Primary human epidermal keratinocytes, HeKa; assay: HeKa cytokine release (IL-8) assay; type: cell-based; settings: 6 h, read-out: HeKa cytokine release (IL-8) Rel EC50 range
Description: Primary human epidermal keratinocytes, HeKa, were seeded (10.000 cells/well) in 96-well plates the day before the assay. Test compounds were diluted in DMSO (dimethyl sulfoxide) and further diluted in assay medium and pipetted into wells of 96 well-plates containing HeKa cells. The plates were incubated for 6 h at 37° C. in humidified air with 5% CO2. Plates are centrifuged briefly to spin down cells at 4° C., the supernatant was removed and analysed by Meso Scale Discovery (MSD) 4-spot cytokine assay (Pro-inflammatory II Ultra Sensitive kit, MSD, MD, USA). The MSD assay employs a sandwich immunoassay format where capture antibodies were coated in a patterned array on the bottom of the wells of a 4-Spot-Multi-MSD plate. Standard samples were incubated in the MULTI-SPOT plates as well, and the cytokine (IL-8) binds to its corresponding capture antibody spot. The cytokine level was quantitated on a SECTOR™ Imager using a cytokine-specific Detection Antibody labelled with MSD SULFO-TAG™ reagent.
Test compound titration curves were fitted to a four-parameter sigmoidal curve after normalizing the effect of the test compound to the effect of the positive control (1.5×10^−7 M PEP0005). Rel EC50 denotes the concentration of test compound producing an effect that is midway between the fitted top and bottom.

CC1=C[C@]23C(=O)[C@@H](C=C(CO)[C@@H](O)[C@]2(O)[C@H]1OC(=O)c1ccccc1C)[C@H]1[C@@H](C[C@H]3C)C1(C)C [Compound 310, Ingenol 3-(2-methyl-benzoate)] was tested, and the EC50 [1] was < 20 nM and the EC50 [2] was < 20 nM.

In the case of COc1cccc(N)c1C(=O)O[C@H]1C(C)=C[C@]23C(=O)[C@@H](C=C(CO)[C@@H](O)[C@]12O)[C@H]1[C@@H](C[C@H]3C)C1(C)C [Compound 334, Ingenol 3-(2-amino-6-methoxy-benzoate)], the EC50 [1] is reported as 20 to 100 nM and the EC50 [2] is reported as 20 to 100 nM.

In the case of CC1=C[C@]23C(=O)[C@@H](C=C(CO)[C@@H](O)[C@]2(O)[C@H]1OC(=O)c1c(C)cccc1NC(=O)C(C)C)[C@H]1[C@@H](C[C@H]3C)C1(C)C [Compound 338, Ingenol 3-(2-methyl-6-(2-methylpropanoylamino)-benzoate)], the EC50 [1] is reported as > 100 nM and the EC50 [2] is reported as > 100 nM.

CC1=C[C@]23C(=O)[C@@H](C=C(CO)[C@@H](O)[C@]2(O)[C@H]1OC(=O)C1(C#N)CCCCC1)[C@H]1[C@@H](C[C@H]3C)C1(C)C [Compound 309, Ingenol 3-(1-cyano-cyclohexanecarboxylate)] was tested, and the EC50 [1] was < 20 nM.

In the case of CC1=C[C@]23C(=O)[C@@H](C=C(CO)[C@@H](O)[C@]2(O)[C@H]1OC(=O)C1CC1)[C@H]1[C@@H](C[C@H]3C)C1(C)C [Compound 301, Ingenol 3-(cyclopropanecarboxylate)], the EC50 [1] is reported as 20 to 100 nM and the EC50 [2] is reported as > 100 nM.

In the case of CC1=C[C@]23C(=O)[C@@H](C=C(CO)[C@@H](O)[C@]2(O)[C@H]1OC(=O)C1C(C)(C)C1(C)C)[C@H]1[C@@H](C[C@H]3C)C1(C)C [Compound 344, Ingenol 3-(2,2,3,3-tetramethylcyclopropylcarboxylate)], the EC50 [1] is reported as < 20 nM and the EC50 [2] is reported as < 20 nM.

CC1=C[C@]23C(=O)[C@@H](C=C(CO)[C@@H](O)[C@]2(O)[C@H]1OC(=O)C1=CCCCC1)[C@H]1[C@@H](C[C@H]3C)C1(C)C [Compound 305, Ingenol 3-(cyclohexene-1-carboxylate)] was tested, and the EC50 [1] was < 20 nM and the EC50 [2] was < 20 nM.

With CC1=C[C@]23C(=O)[C@@H](C=C(CO)[C@@H](O)[C@]2(O)[C@H]1OC(=O)C1CCCC1)[C@H]1[C@@H](C[C@H]3C)C1(C)C [Compound 304, Ingenol 3-(cyclopentanecarboxylate)] the EC50 [1] was < 20 nM and the EC50 [2] was 20 to 100 nM.

For CC1=C[C@]23C(=O)[C@@H](C=C(CO)[C@@H](O)[C@]2(O)[C@H]1OC(=O)c1c(Cl)cccc1Cl)[C@H]1[C@@H](C[C@H]3C)C1(C)C [Compound 317, Ingenol 3-(2,6-dichloro-benzoate)], the EC50 [1] was 20 to 100 nM and the EC50 [2] was < 20 nM.

CC1=C[C@]23C(=O)[C@@H](C=C(CO)[C@@H](O)[C@]2(O)[C@H]1OC(=O)c1c(Cl)cc(Cl)cc1Cl)[C@H]1[C@@H](C[C@H]3C)C1(C)C [Compound 318, Ingenol 3-(2,4,6-trichloro-benzoate)] was tested, and the EC50 [1] was 20 to 100 nM and the EC50 [2] was < 20 nM.

With CC(=O)Nc1cccc(C)c1C(=O)O[C@H]1C(C)=C[C@]23C(=O)[C@@H](C=C(CO)[C@@H](O)[C@]12O)[C@H]1[C@@H](C[C@H]3C)C1(C)C [Compound 337, Ingenol 3-(2-acetylamino-6-methyl-benzoate)] the EC50 [1] was > 100 nM and the EC50 [2] was > 100 nM.

For CC1=C[C@]23C(=O)[C@@H](C=C(CO)[C@@H](O)[C@]2(O)[C@H]1OC(=O)C1CCC1)[C@H]1[C@@H](C[C@H]3C)C1(C)C [Compound 303, Ingenol 3-(cyclobutanecarboxylate)], the EC50 [1] was < 20 nM and the EC50 [2] was > 100 nM.
